We go through 19 compounds from patent US20250074910A1, “MENIN INHIBITOR AND USE THEREOF” (HITGEN INC., priority 2021, published 2025).

For one assay, the system named is MV4-11. In words: Cell proliferation inhibition (CellTiter-Glo), MV4-11. The assay is classed as cell-based. The conditions noted are these: MV4-11 cells. How it is done:
Test Example 2: Test of the Inhibitory Ability of Menin-MLL Interaction Inhibitors on Cell Proliferation
The inhibitory ability of the compounds of the present disclosure on the proliferation of tumor cell lines (including cell lines containing MLL fusion protein such as MV4-11, MOLM-13, THP-1 and NOMO-1, control cell lines without MLL fusion protein such as HL-60, K562 and MOLM-16, and cell lines containing NPM1 mutation such as OCI-AML3) was evaluated by using the cell viability analysis method. The cells were plated in 96-well plates at a certain concentration (e.g., 5,000-20,000 cells/well), and then an equal volume of culture medium containing 2 times the final concentration of the test compound (the final concentration ranging 10 from 1 nM to 10 μM) was added. The plates were placed in an incubator and cultured at 37° C. and 5% CO2 for 72-168 h. Before the test, an equal volume of CellTiter-Glo® Luminescent reagent was added, and the plate was incubated at room temperature for 10 min before detection using an ELISA reader (BMG LABTECH). The data were analyzed using GraphPad Prism software to obtain the IC50 value and compound fitting curve. The control compound 1 was prepared by referring to the method of Example 64 in WO2017214367.
Background: Cellular ATP, detected with luciferase, serves as a proxy for viable cell number.

The target of assay [1] is Menin/MLL-4-43 peptide interaction (Homo sapiens (Human), UniProt O00255). The assay is described as follows: Menin-MLL interaction inhibitory activity assay (fluorescence polarization competition). Format: binding. The conditions noted are these: FITC-MLL4-43-peptide, Menin recombinant protein. How it is done:
Test Example 1: Menin-MLL Interaction Inhibitory Activity Assay
The inhibition of Menin/MLL-4-43 peptide interaction by small molecule inhibitors was quantitatively detected by fluorescence polarization competition assay. The experiment was performed in a 384-well plate (Corning, Cat #3575) using a reaction buffer consisting of 50 mM Tris, pH 7.5, 50 mM NaCl, and 1 mM DTT. A 40 μL reaction system included 10 μL of 8 nM Menin recombinant protein and 10 μL of the test compound at different concentrations. The compound was pre-incubated with Menin protein for 15 min, and then 20 μL of 10 nM FITC-MLL4-43-peptide was added. After incubation on a shaker at 25° C. for 60 min, the fluorescence polarization signal (FP 485 520 520) was read using BMG PHERAStar detection. The experimental data was analyzed and processed by GraphPad Prism 6 software to obtain the IC50 value. The control compound 1 was prepared by referring to the method of Example 64 in WO2017214367.

Sequence of Menin/MLL-4-43 peptide interaction (O00255 whole entry, species assumed): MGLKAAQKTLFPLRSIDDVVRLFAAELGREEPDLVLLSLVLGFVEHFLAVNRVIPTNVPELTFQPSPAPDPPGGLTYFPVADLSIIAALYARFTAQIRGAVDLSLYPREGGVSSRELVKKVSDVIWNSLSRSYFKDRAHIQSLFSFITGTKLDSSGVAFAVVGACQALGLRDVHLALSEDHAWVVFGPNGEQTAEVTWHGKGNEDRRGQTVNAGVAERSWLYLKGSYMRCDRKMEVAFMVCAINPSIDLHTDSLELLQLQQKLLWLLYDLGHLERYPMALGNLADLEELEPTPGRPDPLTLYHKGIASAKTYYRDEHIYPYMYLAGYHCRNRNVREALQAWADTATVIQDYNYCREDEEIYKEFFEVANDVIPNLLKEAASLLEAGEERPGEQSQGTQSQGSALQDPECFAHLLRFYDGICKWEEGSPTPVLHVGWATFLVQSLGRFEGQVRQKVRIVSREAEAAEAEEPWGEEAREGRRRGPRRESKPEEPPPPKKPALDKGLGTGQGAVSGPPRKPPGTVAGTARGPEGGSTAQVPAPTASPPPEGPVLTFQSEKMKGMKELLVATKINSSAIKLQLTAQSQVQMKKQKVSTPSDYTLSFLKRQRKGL

In the assay with MV4-11 (Homo sapiens, MV4-11, 72 h), `CC(C)N(C(=O)c1cc(F)ccc1Oc1cncnc1N1CC2(CCN(CC3CC4CCC3CC43CCC(=O)N3)CC2)C1)C(C)C` (single isomer, unassigned) [Example 13-1] yielded a GI50 of 82.6 nM. Further, the IC50 in assay [1] was 21.3 nM. `CC(C)N(C(=O)c1cc(F)ccc1Oc1cncnc1N1CC2(CCN(CC3CC4CCC3CC43CCC(=O)N3)CC2)C1)C(C)C` (single isomer, unassigned) [Example 13-2a] had a GI50 in the assay with MV4-11 (72 h) of 25.2 nM. In addition, the IC50 in assay [1] worked out at 16.5 nM. For `CC(C)N(C(=O)c1cc(F)ccc1Oc1cncnc1N1CC2(CCN(CC3CC4CCC3CC43CCC(=O)N3)CC2)C1)C(C)C` (single isomer, unassigned) [Example 13-1a], the half-maximal inhibitory concentration (IC50) in assay [1] came out at 177 nM. Turning to `COC[C@@H]1C[C@]2(CC[C@@H](CN3CCC4(CC3)CN(c3ncncc3Oc3ccc(F)cc3C(=O)N(C(C)C)C(C)C)C4)CC2)NC1=O` [Example 36], the concentration for 50% growth inhibition (GI50) in the assay on MV4-11 (Homo sapiens, MV4-11, 72 h) turned out to be 13.1 nM. In assay [1], the concentration for half-maximal inhibition (IC50) was 4.4 nM. For `[2H]C([2H])([2H])C1(C([2H])([2H])[2H])C[C@]2(CC[C@@H](CN3CCC4(CC3)CN(c3ncnnc3Oc3ccc(F)cc3C(=O)N(C(C)C)C(C)C)C4)CC2)NC1=O` [Example 34], the 50% growth inhibitory concentration (GI50) in the assay on MV4-11 (Homo sapiens, MV4-11, 72 h) was found to be 12.6 nM. Besides, in assay [1], the half-maximal inhibitory concentration (IC50) was 6.4 nM. `CC(C)N(C(=O)c1cc(F)ccc1Oc1nncnc1N1CC2(CCN(CC3CC4CCC3CC43CCC(=O)N3)CC2)C1)C(C)C` (stereo not drawn) [Example 15-1]: the half-inhibitory concentration (IC50) in assay [1] was 90.9 nM. In the assay on MV4-11 (72 h), `CC(C)N(C(=O)c1cc(F)ccc1Oc1cncnc1N1CC2(CCN(CC3CC4CCC3CC43CCC(=O)N3)CC2)C1)C(C)C` (single isomer, unassigned) [Example 13-2b] registered a GI50 of 153 nM. For the same compound, the half-inhibitory concentration (IC50) in assay [1] was 142 nM. `CC(C)N(C(=O)c1cc(F)ccc1Oc1nncnc1N1CC2(CCN(CC3CC4CCC3CC43COC(=O)N3)CC2)C1)C(C)C` (single isomer, unassigned) [Example 52-1]: the IC50 in assay [1] was 135 nM.

As for `[2H]C([2H])([2H])C1C[C@]2(CC[C@@H](CN3CCC4(CC3)CN(c3ncnnc3Oc3ccc(F)cc3C(=O)N(CC)C(C)C)C4)CC2)NC1=O` (single isomer, unassigned) [Example 42-2], the half-maximal inhibitory concentration (IC50) in assay [1] stood at 44.5 nM. In the case of `CC(C)N(C(=O)c1cc(F)ccc1Oc1nncnc1N1CC2(CCN(CC3CC4CCC3CC43CCC(=O)N3)CC2)C1)C1CC1` (stereo not drawn) [Example 16-1], in the assay with MV4-11 (Homo sapiens, MV4-11, 72 h), halving of growth (GI50) required 130 nM. `CC(C)N(C(=O)c1cc(F)ccc1Oc1cncnc1N1CC2(CCN(CC3CC4CCC3CC43COC(=O)N3)CC2)C1)C(C)C` (single isomer, unassigned) [Example 51-2b]: the IC50 in assay [1] is 141 nM. The same measure, in the same setting: then `CCN(C(=O)c1cc(F)ccc1Oc1nncnc1N1CC2(CCN(CC3CC4CCC3CC43CCC(=O)N3)CC2)C1)C(C)C` (stereo not drawn) [Example 14-1], with 103 nM. Still for that read-out and setting: to `CCN(C(=O)c1cc(F)ccc1Oc1cncnc1N1CC2(CCN(CC3CC4CCC3CC43CCC(=O)N3)CC2)C1)C(C)C` (single isomer, unassigned) [Example 4-2] belongs 60.7 nM; to `CC1C[C@]2(CC[C@@H](CN3CCC4(CC3)CN(c3ncnnc3Oc3ccc(F)cc3C(=O)N(C(C)C)C(C)C)C4)CC2)NC1=O` (stereo partly drawn) [Example 41-2], 22.4 nM. Still for that read-out and setting: then `CC(C)N(C(=O)c1cc(F)ccc1Oc1nncnc1N1CC2(CCN(CC3CC4CCC3CC43CCC(=O)N3)CC2)C1)C1CC1` (stereo not drawn) [Example 16-2], with 163 nM. With `CC(C)N(C(=O)c1cc(F)ccc1Oc1nncnc1N1CC2(CCN(CC3CC4CCC3CC43CCC(=O)N3)CC2)C1)C(C)C` (single isomer, unassigned) [Example 15-1b], the IC50 in assay [1] stood at 142 nM.

As for `CC(C)N(C(=O)c1cc(F)ccc1Oc1nncnc1N1CC2(CCN(C[C@H]3CC[C@@]4(CCC(=O)N4)CC3)CC2)C1)C1CC1` [Example 11], the concentration for half-maximal inhibition (IC50) in assay [1] was 167 nM. On to `CC(C)N(C)C(=O)c1cc(F)ccc1Oc1nncnc1N1CC2(CCN(C[C@H]3CC[C@]4(CC3)CC(C)(C)C(=O)N4)CC2)C1` [Example 28], for which, in assay [1], the 50% inhibitory concentration (IC50) worked out at 134 nM. For `CC(C)N(C(=O)c1cc(F)ccc1Oc1nncnc1N1CC2(CCN(CC3CC4CCC3CC43COC(=O)N3)CC2)C1)C(C)C` (single isomer, unassigned) [Example 52-2], the IC50 in assay [1] was found to be 93.9 nM.

What is called GI50 is the concentration giving 50% growth inhibition. Higher therefore signals lower sensitivity of the cells. The IC50 is the midpoint of a concentration-inhibition curve.
